According to patent US9795134B2, “Growth enhancement of plant” (RHODIA OPERATIONS, priority 2012, dated 2017):

System: Wheat seeds
Experiment: Germination test on wheat seeds with pesticide (tebuconazol) treatment
Assay type: in vivo
Details: Guar 1/seed 0.2%, tebuconazol/seed 0.1%, 25 ml water each 2 days, 25° C.
Description: Germination rate means the number of plant emerging out of soil in comparison with the number of all introduced in the soil. Height is the medium height of all plants in a set. Spraying an aqueous solution comprising 0.4 wt % of Guar 1 and […] additives on the surface of Wheat seeds, to obtain a weight ratio Guar 1/seed of 0.2% and tebuconazol/seed of 0.1%. 900 g of soil in each pot are used; this soil coming from […] province and belongs to […] soil. The germination test is carried out under watering conditions of 25 ml water each 2 days, with a temperature is 25° C.

## CC(C)(C)C(O)(CCc1ccc(Cl)cc1)Cn1cncn1 (centres unmarked) [tebucanozol, tebuconazol]
  Germination rate (36 days): 47%
  Height (36 days): 4.6 cm
